Values after ≈ are worked out from the molar mass of the structure shown. Read-outs that look alike come from different tables or passages of the source.
How the values were obtained:
Assay in all cases: Bacterial susceptibility testing (MIC, broth microdilution)
Assay type in all cases: cell-based
[1] = test system: E. coli ATCC25922; conditions: for MIC: Escherichia coli
Method: (§1) Minimal inhibitory concentrations (MIC) were determined by the broth microdilution method in accordance with the Clinical and Laboratory Standards Institute (CLSI) guidelines. In brief, organism suspensions were adjusted to a final inoculum between 3×10^5 and 7×10^5 colony-forming units (CFU)/mL. Drug dilutions and inocula were made in sterile, cation adjusted Mueller-Hinton Broth (Beckton Dickinson). In wells, an inoculum volume of 100 μL was mixed to 2 μL of DMSO with 2-fold serial dilutions of drug. All inoculated microdilution trays were incubated in ambient air at 35° C. for 18-24 h. Following incubation, the lowest concentration of the drug that prevented visible growth (OD600 nm<0.05) was recorded as the MIC. Performance of the assay was monitored by the use of laboratory quality -control strains and compounds with defined MIC spectrum, in accordance with CLSI guidelines.

[2] = test system: K. pneumoniae ATCC13883; conditions: for MIC: Klebsiella pneumoniae
Method: as §1

[3] = test system: P. aeruginosa ATCC27853; conditions: for MIC: Pseudomonas aeruginosa
Method: as §1

[4] = test system: P. aeruginosa PAO1; conditions: Pseudomonas aeruginosa
Method: as §1

[5] = ATCC25922, broth microdilution, cation adjusted Mueller-Hinton Broth, 35° C., 18-24 h, read-out: E. coli ATCC25922 MIC
[6] = ATCC13883, broth microdilution, cation adjusted Mueller-Hinton Broth, 35° C., 18-24 h, read-out: K. pneumoniae ATCC13883 MIC
[7] = ATCC27853, broth microdilution, cation adjusted Mueller-Hinton Broth, 35° C., 18-24 h, read-out: P. aeruginosa ATCC27853 MIC
[8] = PAO1, broth microdilution, cation adjusted Mueller-Hinton Broth, 35° C., 18-24 h, read-out: P. aeruginosa PAO1 MIC
[9] = ATCC25922, read-out: E. coli ATCC25922 MIC
[10] = ATCC13883, read-out: K. pneumoniae ATCC13883 MIC
[11] = ATCC27853, read-out: P. aeruginosa ATCC27853 MIC
[12] = PAO1, read-out: P. aeruginosa PAO1 MIC
[13] = broth microdilution, cation adjusted Mueller-Hinton Broth, 35° C., 18-24 h

Row | Structure (SMILES) | MIC [1, 5] | MIC [2, 6] | MIC [3, 7] | MIC [4, 8] | MIC [1, 9] | MIC [2, 10] | MIC [3, 11] | MIC [4, 12] | E. coli ATCC25922 MIC [1, 13] | K. pneumoniae ATCC13883 MIC [2, 13] | P. aeruginosa ATCC27853 MIC [3, 13]
1 | C[C@H](O)c1nccn1[C@@H](C#Cc1ccc(-c2ccc(CO[C@H]3COC[C@@H]3O)c(F)c2)cc1)CO (single isomer, unassigned) [Compound 45] | 1 µg/mL (≈ 2.14 µM) | 2 µg/mL (≈ 4.29 µM) | 4 µg/mL (≈ 8.57 µM) | 2 µg/mL (≈ 4.29 µM) |  |  |  |  |  |  | 
2 | C[C@H](O)c1nccn1[C@@H](C#Cc1ccc(-c2ccc(CO[C@@H]3COC[C@H]3O)c(F)c2)cc1)CO (racemic) [Compound 44, (rac-trans)-4-((3-fluoro-4′-((S)-4-hydroxy-3-(2-((S)-1-hydroxyethyl)-1H-imidazol-1-yl)but-1-yn-1-yl)-[1,1′-biphenyl]-4-yl)methoxy)tetrahydrofuran-3-ol] | 4 µg/mL (≈ 8.57 µM) | 8 µg/mL (≈ 17.1 µM) | 8 µg/mL (≈ 17.1 µM) | 8 µg/mL (≈ 17.1 µM) |  |  |  |  |  |  | 
3 | CC(=O)NCc1ccc(-c2ccc(C#C[C@@H](CO)n3ccnc3[C@H](C)O)cc2)cc1 (single isomer, unassigned) [Compound 143] | 4 µg/mL (≈ 9.91 µM) | 4 µg/mL (≈ 9.91 µM) | 8 µg/mL (≈ 19.8 µM) | 2 µg/mL (≈ 4.96 µM) |  |  |  |  |  |  | 
4 | C[C@H](O)c1nccn1[C@@H](C#Cc1ccc(-c2ccc(NC3COC[C@@H]3O)cc2F)cc1)CO (single isomer, unassigned) [Compound 57] | 1 µg/mL (≈ 2.21 µM) | 4 µg/mL (≈ 8.86 µM) | 2 µg/mL (≈ 4.43 µM) | 2 µg/mL (≈ 4.43 µM) |  |  |  |  |  |  | 
5 | CC(=O)N1CC(c2ccc(-c3ccc(C#C[C@@H](CO)n4ccnc4[C@H](C)O)cc3)cc2)C1 [Compound 139, 1-(3-(4′-((S)-4-hydroxy-3-(2-((S)-1-hydroxyethyl)-1H-imidazol-1-yl)but-1-yn-1-yl)-[1,1′-biphenyl]-4-yl)azetidin-1-yl)ethan-1-one] | 0.5 µg/mL (≈ 1.16 µM) | 1 µg/mL (≈ 2.33 µM) | 4 µg/mL (≈ 9.31 µM) | 1 µg/mL (≈ 2.33 µM) |  |  |  |  |  |  | 
6 | C[C@H](O)c1nccn1[C@@H](C#Cc1ccc(-c2ccc(NC3CC3)cc2)cc1)CO [Compound 81, (S)-4-(4′-(cyclopropylamino)-[1,1′-biphenyl]-4-yl)-2-(2-((S)-1-hydroxyethyl)-1H-imidazol-1-yl)but-3-yn-1-ol] |  |  |  |  | 0.25 µg/mL (≈ 0.645 µM) | 0.5 µg/mL (≈ 1.29 µM) | 8 µg/mL (≈ 20.6 µM) | 2 µg/mL (≈ 5.16 µM) |  |  | 
7 | C[C@H](O)c1nccn1[C@@H](C#Cc1ccc(-c2ccc(O[C@@H]3CCOC[C@H]3O)cc2F)cc1)CO (racemic) [Compound 54, (rac-trans)-4-((2-fluoro-4′-((S)-4-hydroxy-3-(2-((S)-1-hydroxyethyl)-1H-imidazol-1-yl)but-1-yn-1-yl)-[1,1′-biphenyl]-4-yl)oxy)tetrahydro-2H-pyran-3-ol] | 1 µg/mL (≈ 2.14 µM) | 2 µg/mL (≈ 4.29 µM) | 8 µg/mL (≈ 17.1 µM) | 4 µg/mL (≈ 8.57 µM) |  |  |  |  |  |  | 
8 | C[C@H](O)c1nccn1[C@@H](C#Cc1ccc(-c2ccc(NC3COC[C@H]3O)cc2F)cc1)CO (single isomer, unassigned) [Compound 58] | 1 µg/mL (≈ 2.21 µM) | 4 µg/mL (≈ 8.86 µM) | 4 µg/mL (≈ 8.86 µM) | 4 µg/mL (≈ 8.86 µM) |  |  |  |  |  |  | 
9 | C[C@H](O)c1nccn1[C@@H](C#Cc1ccc(-c2ccc(O[C@@H]3CCOC[C@H]3O)cc2)cc1)CO [Compound 72, (3R,4R)-4-((4′-((S)-4-hydroxy-3-(2-((S)-1-hydroxyethyl)-1H-imidazol-1-yl)but-1-yn-1-yl)-[1,1′-biphenyl]-4-yl)oxy)tetrahydro-2H-pyran-3-ol] | 1 µg/mL (≈ 2.23 µM) | 2 µg/mL (≈ 4.46 µM) | 8 µg/mL (≈ 17.8 µM) | 2 µg/mL (≈ 4.46 µM) |  |  |  |  |  |  | 
10 | C[C@H](O)c1nccn1[C@@H](C#Cc1ccc(-c2ccc(O[C@@H]3CCOC[C@H]3O)c(F)c2)cc1)CO (racemic) [Compound 51, (rac-trans)-4-((3-fluoro-4′-((S)-4-hydroxy-3-(2-((S)-1-hydroxyethyl)-1H-imidazol-1-yl)but-1-yn-1-yl)-[1,1′-biphenyl]-4-yl)oxy)tetrahydro-2H-pyran-3-ol] | 2 µg/mL (≈ 4.29 µM) | 4 µg/mL (≈ 8.57 µM) | 8 µg/mL (≈ 17.1 µM) | 2 µg/mL (≈ 4.29 µM) |  |  |  |  |  |  | 
11 | CO[C@@H]1COC[C@H]1Oc1ccc(-c2ccc(C#C[C@@H](CO)n3ccnc3[C@H](C)O)cc2)cc1 (single isomer, unassigned) [Compound 126] | 0.5 µg/mL (≈ 1.11 µM) | 1 µg/mL (≈ 2.23 µM) | 4 µg/mL (≈ 8.92 µM) | 2 µg/mL (≈ 4.46 µM) |  |  |  |  |  |  | 
12 | C[C@H](O)c1nccn1[C@@H](C#Cc1ccc(-c2ccc(O[C@@H]3COC[C@H]3O)cc2F)cc1)CO (racemic) [Compound 1, (rac-trans)-4-((2-fluoro-4′-((S)-4-hydroxy-3-(2-((S)-1-hydroxyethyl)-1H-imidazol-1-yl)but-1-yn-1-yl)-[1,1′-biphenyl]-4-yl)oxy)tetrahydrofuran-3-ol] | 0.5 µg/mL (≈ 1.11 µM) | 2 µg/mL (≈ 4.42 µM) | 4 µg/mL (≈ 8.84 µM) | 2 µg/mL (≈ 4.42 µM) |  |  |  |  |  |  | 
13 | C[C@H](O)c1nccn1[C@@H](C#Cc1ccc(-c2ccc(O[C@@H]3COC[C@H]3O)c(F)c2F)cc1)CO (single isomer, unassigned) [Compound 13] | 2 µg/mL (≈ 4.25 µM) | 4 µg/mL (≈ 8.5 µM) | 16 µg/mL (≈ 34 µM) | 4 µg/mL (≈ 8.5 µM) |  |  |  |  |  |  | 
14 | CO[C@H]1C[C@@H](c2ccc(-c3ccc(C#C[C@@H](CO)n4ccnc4[C@H](C)O)cc3)cc2)C1 (racemic) [Compound 118, (S)-2-(2-((S)-1-hydroxyethyl)-1H-imidazol-1-yl)-4-(4′-((rac-cis)-3-methoxycyclobutyl)-[1,1′-biphenyl]-4-yl)but-3-yn-1-ol] | 0.12 µg/mL (≈ 0.288 µM) | 0.38 µg/mL (≈ 0.912 µM) | 4 µg/mL (≈ 9.6 µM) | 2 µg/mL (≈ 4.8 µM) |  |  |  |  |  |  | 
15 | C[C@H](O)c1nccn1[C@@H](C#Cc1ccc(-c2ccc(O[C@@H]3COC[C@H]3O)c(F)c2)c(F)c1)CO (single isomer, unassigned) [Compound 10] | 1 µg/mL (≈ 2.13 µM) | 2 µg/mL (≈ 4.25 µM) | 8 µg/mL (≈ 17 µM) | 4 µg/mL (≈ 8.5 µM) |  |  |  |  |  |  | 
16 | C[C@H](O)c1nccn1[C@@H](C#Cc1ccc(-c2ccc(OC3CC4(C3)CN(CC#N)C4)cc2)cc1)CO (single isomer, unassigned) [Compound 67] | 0.5 µg/mL (≈ 1.04 µM) | 4 µg/mL (≈ 8.29 µM) | 4 µg/mL (≈ 8.29 µM) | 2 µg/mL (≈ 4.14 µM) |  |  |  |  |  |  | 
17 | C[C@H](O)c1nccn1[C@@H](C#Cc1ccc(-c2ccc(OC3COC[C@H]3O)c(F)c2)cc1)CO (mixture of isomers) [Compound 6, (rac-trans)-4-((3-fluoro-4′-((S)-4-hydroxy-3-(2-((S)-1-hydroxyethyl)-1H-imidazol-1-yl)but-1-yn-1-yl)-[1,1′-biphenyl]-4-yl)oxy)tetrahydrofuran-3-ol] | 2 µg/mL (≈ 4.42 µM) | 4 µg/mL (≈ 8.84 µM) | 4 µg/mL (≈ 8.84 µM) | 2 µg/mL (≈ 4.42 µM) |  |  |  |  |  |  | 
18 | C[C@H](O)c1nccn1[C@@H](C#Cc1ccc(-c2ccc(N[C@@H]3COC[C@H]3O)cc2)cc1)CO (single isomer, unassigned) [Compound 70] | 2 µg/mL (≈ 4.61 µM) | 4 µg/mL (≈ 9.23 µM) | 1 µg/mL (≈ 2.31 µM) | 1 µg/mL (≈ 2.31 µM) |  |  |  |  |  |  | 
19 | C[C@H](O)c1nccn1[C@@H](C#Cc1ccc(-c2ccc(OC3CN(c4nccn4C)C3)cc2)cc1)CO [Compound 98, (S)-2-(2-((S)-1-hydroxyethyl)-1H-imidazol-1-yl)-4-(4′-((1-(1-methyl-1H-imidazol-2-yl)azetidin-3-yl)oxy)-[1,1′-biphenyl]-4-yl)but-3-yn-1-ol] |  |  |  |  | 0.5 µg/mL (≈ 1.03 µM) | 2 µg/mL (≈ 4.14 µM) | 8 µg/mL (≈ 16.5 µM) | 4 µg/mL (≈ 8.27 µM) |  |  | 
20 | C[C@H](O)c1nccn1[C@@H](C#Cc1ccc(-c2ccc(OC3CN(C(=O)N4CCOCC4)C3)cc2)cc1)CO [Compound 96, (3-((4′-((S)-4-hydroxy-3-(2-((S)-1-hydroxyethyl)-1H-imidazol-1-yl)but-1-yn-1-yl)-[1,1′-biphenyl]-4-yl)oxy)azetidin-1-yl)(morpholino)methanone] |  |  |  |  | 2 µg/mL (≈ 3.87 µM) | 8 µg/mL (≈ 15.5 µM) | 8 µg/mL (≈ 15.5 µM) | 8 µg/mL (≈ 15.5 µM) |  |  | 
21 | C[C@H](O)c1nccn1[C@@H](C#Cc1ccc(-c2ccc(C3CCO3)cc2)cc1)CO (mixture of isomers) [Compound 106, (2S)-2-(2-((S)-1-hydroxyethyl)-1H-imidazol-1-yl)-4-(4′-(oxetan-2-yl)-[1,1′-biphenyl]-4-yl)but-3-yn-1-ol] | 0.25 µg/mL (≈ 0.644 µM) | 0.5 µg/mL (≈ 1.29 µM) | 4 µg/mL (≈ 10.3 µM) | 2 µg/mL (≈ 5.15 µM) |  |  |  |  |  |  | 
22 | C[C@H](O)c1nccn1[C@@H](C#Cc1ccc(-c2ccc(OC3CN(C(=O)CO)C3)cc2)cc1)CO [Compound 91, 2-hydroxy-1-(3-((4′-((S)-4-hydroxy-3-(2-((S)-1-hydroxyethyl)-1H-imidazol-1-yl)but-1-yn-1-yl)-[1,1′-biphenyl]-4-yl)oxy)azetidin-1-yl)ethan-1-one] |  |  |  |  | 2 µg/mL (≈ 4.33 µM) | 4 µg/mL (≈ 8.67 µM) | 4 µg/mL (≈ 8.67 µM) | 2 µg/mL (≈ 4.33 µM) |  |  | 
23 | CNC(=O)[C@H]1C[C@H](Oc2ccc(-c3ccc(C#C[C@@H](CO)n4ccnc4[C@H](C)O)cc3)cc2)C1 (racemic) [Compound 122, (rac-trans)-3-((4′-((S)-4-hydroxy-3-(2-((S)-1-hydroxyethyl)-1H-imidazol-1-yl)but-1-yn-1-yl)-[1,1′-biphenyl]-4-yl)oxy)-N-methylcyclobutane-1-carboxamide] | 0.5 µg/mL (≈ 1.09 µM) | 1 µg/mL (≈ 2.18 µM) | 2 µg/mL (≈ 4.35 µM) | 2 µg/mL (≈ 4.35 µM) |  |  |  |  |  |  | 
24 | C[C@H](O)c1nccn1[C@@H](C#Cc1ccc(-c2ccc(CO[C@H]3COC[C@@H]3O)c(F)c2)cc1)CO (single isomer, unassigned) [Compound 46] |  |  |  |  |  |  |  |  | 1 µg/mL | 2 µg/mL | 4 µg/mL
